Reference: article PMC4285139, “Target discovery of acivicin in cancer cells elucidates its mechanism of growth inhibition” (Chemical Science, 2014)

How the values were obtained:
ALDH4A1 [1] = target: T1, ALDH4A1 (Homo sapiens, UniProt P30038); assay: enzyme inhibition assay with purified recombinant enzyme ([…] min pre-incubation); also ABPP labelling, lost in the Cys348Ala mutant; assay type: biochemical
T1 sequence (P30038 25-563): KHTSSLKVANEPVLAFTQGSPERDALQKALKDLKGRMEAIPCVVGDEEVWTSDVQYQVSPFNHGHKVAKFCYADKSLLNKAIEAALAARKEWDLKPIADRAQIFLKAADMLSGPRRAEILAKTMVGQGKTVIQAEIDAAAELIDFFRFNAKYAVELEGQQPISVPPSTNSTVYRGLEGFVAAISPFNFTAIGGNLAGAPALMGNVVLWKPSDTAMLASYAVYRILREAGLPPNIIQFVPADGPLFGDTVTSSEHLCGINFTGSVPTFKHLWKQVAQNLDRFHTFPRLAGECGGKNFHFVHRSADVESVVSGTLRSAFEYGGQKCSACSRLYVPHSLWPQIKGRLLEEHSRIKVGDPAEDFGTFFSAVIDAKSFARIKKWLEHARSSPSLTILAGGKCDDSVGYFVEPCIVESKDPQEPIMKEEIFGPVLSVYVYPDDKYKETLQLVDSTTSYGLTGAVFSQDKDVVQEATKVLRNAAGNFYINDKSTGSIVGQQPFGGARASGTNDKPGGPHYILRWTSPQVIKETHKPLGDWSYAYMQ

ALDH1A1 = target: T2, ALDH1A1 (Homo sapiens, UniProt P00352); assay: enzyme inhibition assay with purified recombinant enzyme ([…] min pre-incubation); assay type: biochemical
T2 sequence (P00352 2-501): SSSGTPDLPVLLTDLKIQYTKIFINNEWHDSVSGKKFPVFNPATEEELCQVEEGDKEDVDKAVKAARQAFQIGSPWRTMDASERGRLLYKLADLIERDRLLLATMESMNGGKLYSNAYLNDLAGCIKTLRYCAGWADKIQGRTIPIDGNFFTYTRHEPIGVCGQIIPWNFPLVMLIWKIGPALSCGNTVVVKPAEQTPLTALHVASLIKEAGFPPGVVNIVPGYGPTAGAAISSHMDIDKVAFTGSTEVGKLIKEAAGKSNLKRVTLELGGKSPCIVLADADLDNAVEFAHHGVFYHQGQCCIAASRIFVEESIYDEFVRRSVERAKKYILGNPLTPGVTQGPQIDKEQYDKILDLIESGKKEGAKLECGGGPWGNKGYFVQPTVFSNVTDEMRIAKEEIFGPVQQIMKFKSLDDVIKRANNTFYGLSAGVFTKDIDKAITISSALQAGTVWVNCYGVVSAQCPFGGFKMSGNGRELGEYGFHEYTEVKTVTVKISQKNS

ALDH4A1 [2] = target: T1, ALDH4A1; assay: enzyme inhibition assay with purified recombinant enzyme ([…] min pre-incubation); also competitive ABPP labelling in HepG2 lysate and cells; assay type: biochemical
ALDH4A1 [3] = target: T1, ALDH4A1; assay: pre-incubation of native enzyme blocks probe labelling (competitive ABPP); assay type: cell-based

`C#CCCCC(=O)N[C@H](C(=O)O)[C@@H]1CC(Cl)=NO1` [ACV1] was tested. Which IC50 (ALDH4A1 [1]) did it give?
The IC50 was 0.7 µM.

How did the IC50 (ALDH1A1) turn out when `C#CCNC(=O)[C@@H](N)[C@@H]1CC(Cl)=NO1` [ACV2] was run?
The IC50 was 55 µM.

`N[C@H](C(=O)O)[C@@H]1CC(Cl)=NO1` [ACV, Acivicin] was tested. Which IC50 (ALDH4A1 [2]) did it give?
Its IC50 is 5.4 µM.

`C#CCCCC(=O)OC[C@H]1CC(Br)=NO1` [ACVL1] was tested. Which IC50 (ALDH1A1) did it give?
Its IC50 is 0.3 µM.

Which “pre-incubation of native enzyme blocks probe labelling (competitive ABPP)” value (ALDH4A1 [3]) does the source give for `CCN(CC)C(=S)SSC(=S)N(CC)CC` [disulfiram] here?
Its value is “pre-incubation of the native enzyme with the ALDH inhibitor disulfiram resulted in a lack of labeling”.
